Reference: patent US11076595B2, “1-(n,n-disubstituted carbamoyl) 4-(substituted sulfonyl)triazolin-5-one derivative, 4-(n,n-disubstituted carbamoyl) 1-(substituted sulfonyl)triazolin-5-one derivative, and herbicide containing said derivative as active ingredient” (HOKKO CHEMICAL INDUSTRY CO., LTD., priority 2017, dated 2021)

Legend:
Type in all cases: in vivo
Echinochloa crus-galli [1] = experiment: Test Example 11: herbicidal effect test by soil treatment in paddy field; conditions: 120 g/10a active ingredient, 14 days after treatment
Method in brief: (§1)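 Seeds were sown 0-1 cm deep in puddled, fertilised paddy soil in Wagner pots and kept under about 3 cm of flooding in a greenhouse. Diluted emulsifiable concentrate was added dropwise right after sowing at 120 g a.i. per 10 are. Suppression (%) came from dry weight versus untreated pots after 14 days, two replicates.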

Lindernia pyxidaria [2] = experiment: as above; conditions: 120 g/10a active ingredient, 14 days after treatment
Method in brief: as §1

Monochoria vaginalis [3] = experiment: as above; conditions: 120 g/10a active ingredient, 14 days after treatment
Method in brief: as §1

Scirpus juncoides [4] = experiment: as above; conditions: 120 g/10a active ingredient, 14 days after treatment
Method in brief: as §1

Echinochloa crus-galli [5] = experiment: Test Example 12: herbicidal effect test by treatment during growing period in paddy field; conditions: 120 g/10a; treatment seven days after sowing in flooded paddy pot; assessed 14 days after treatment
Method in brief: (§2)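 Read-out: weed suppression (%) = (1 − treated/untreated mean dry weight) × 100, scored 14 days after treatment with two replications. Pots held puddled paddy soil, 30 seeds per species sown 0–1 cm, flooded ~3 cm. Post-emergence dropwise water application at 7 days after sowing, 120 g a.i./10 are.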

Lindernia pyxidaria [6] = experiment: as above; conditions: 120 g/10a; treatment seven days after sowing in flooded paddy pot; assessed 14 days after treatment
Method in brief: as §2

Monochoria vaginalis [7] = experiment: as above; conditions: 120 g/10a; treatment seven days after sowing in flooded paddy pot; assessed 14 days after treatment
Method in brief: as §2

Scirpus juncoides [8] = experiment: as above; conditions: 120 g/10a; treatment seven days after sowing in flooded paddy pot; assessed 14 days after treatment
Method in brief: as §2

Amaranthus viridis [9] = experiment: Test Example 13: herbicidal effect test by soil treatment in upland field; conditions: 120 g/10a, 14 days after treatment
Method in brief: (§3)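 Pre-emergence soil treatment: alluvial soil pots (36 cm^2) sown with 20 seeds per weed species, sprayed one day later with water-diluted emulsifiable concentrate at 100 liter per 10 are, equal to 120 g active ingredient per 10 are. Two replicates; weed suppression (%) from dry weight versus untreated plots at 14 days.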

Chenopodium album [10] = experiment: as above; conditions: 120 g/10a, 14 days after treatment
Method in brief: as §3

Echinochloa crus-galli [11] = experiment: as above; conditions: 120 g/10a, 14 days after treatment
Method in brief: as §3

crabgrass [12] = experiment: as above; conditions: 120 g/10a, 14 days after treatment
Method in brief: as §3

Chenopodium album [13] = experiment: Test Example 14: herbicidal effect test by foliage treatment in upland field; conditions: 7 days after sowing, 120 g/10a, 14 days after treatment
Method in brief: (§4)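 Weeds sown 20 seeds each in alluvial field soil; 7 days after sowing, water-diluted emulsifiable concentrate sprayed at 100 L per 10 are, 120 g active ingredient per 10 are. Suppression rate (%) from dry weight versus untreated plots at 14 days, two replicates.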

crabgrass [14] = experiment: as above; conditions: 7 days after sowing, 120 g/10a, 14 days after treatment
Method in brief: as §4

Amaranthus viridis [15] = experiment: as above; conditions: 7 days after sowing, 120 g/10a, 14 days after treatment
Method in brief: as §4

Echinochloa crus-galli [16] = experiment: as above; conditions: 7 days after sowing, 120 g/10a, 14 days after treatment
Method in brief: as §4

| Structure (SMILES) | Weed suppression rate (%) Echinochloa crus-galli (Echinochloa crus-galli [1]) [%] | Weed suppression rate (%) Lindemia pyxidaria (Lindernia pyxidaria [2]) [%] | Weed suppression rate (%) Monochoria vaginalis (Monochoria vaginalis [3]) [%] | Weed suppression rate (%) Scirpus juncoides (Scirpus juncoides [4]) [%] | Weed suppression rate (%) Echinochloa crus-galli (Echinochloa crus-galli [5]) [%] | Weed suppression rate (%) Lindemia pyxidaria (Lindernia pyxidaria [6]) [%] | Weed suppression rate (%) Monochoria vaginalis (Monochoria vaginalis [7]) [%] | Weed suppression rate (%) Scirpus juncoides (Scirpus juncoides [8]) [%] | herbicidal effect, Amaranthus viridis (Amaranthus viridis [9]) [%] | herbicidal effect, Chenopodium album (Chenopodium album [10]) [%] | herbicidal effect, Echinochloa crus-galli (Echinochloa crus-galli [11]) [%] | herbicidal effect, Crabgrass (crabgrass [12]) [%] | herbicidal effect, Chenopodium album (Chenopodium album [13]) [%] | herbicidal effect, Crabgrass (crabgrass [14]) [%] | herbicidal effect, Amaranthus viridis (Amaranthus viridis [15]) [%] | herbicidal effect, Echinochloa crus-galli (Echinochloa crus-galli [16]) [%] |
| --- | --- | --- | --- | --- | --- | --- | --- | --- | --- | --- | --- | --- | --- | --- | --- | --- |
| CCc1ccc(S(=O)(=O)n2ncn(C(=O)N(c3ccc(F)cc3F)C(C)C)c2=O)cc1 [Compound 11-666] | 100 | 90 | 90 | 90 | 100 | 90 | 90 | 90 | 40 | 100 | 100 | 90 | 40 | 90 | 40 | 90 |
| CC(C)N(C(=O)n1cnn(S(=O)(=O)c2ccc(C(C)(C)C)cc2)c1=O)c1ccc(Cl)cn1 [Compound 11-706] | 100 | 100 | 80 | 90 | 80 | 80 | 80 | 70 | 50 | 50 | 80 | 80 | 40 | 50 | 70 | 0 |
| CC(C)N(C(=O)n1cnn(S(=O)(=O)c2c(F)cccc2F)c1=O)c1ccccc1 [Compound 11-762] | 90 | 90 | 90 | 40 | 80 | 60 | 90 | 80 | 60 | 60 | 80 | 90 | 60 | 90 | 70 | 90 |
| CC(C)N(C(=O)n1cnn(S(=O)(=O)c2c(F)c(F)c(F)c(F)c2F)c1=O)c1ccccc1 [Compound 11-800] | 90 | 90 | 80 | 90 | 90 | 60 | 90 | 90 | 70 | 70 | 60 | 90 | 100 | 90 | 100 | 90 |
| Cc1cc(C)c(S(=O)(=O)n2ncn(C(=O)N(c3ccccc3)C(C)C)c2=O)c(C)c1 [Compound 11-852] | 100 | 90 | 90 | 90 | 80 | 90 | 90 | 90 | 60 | 60 | 80 | 80 | 70 | 90 | 60 | 60 |
| Cc1cc(C)c(S(=O)(=O)n2ncn(C(=O)N(c3ccc(F)cc3F)C(C)C)c2=O)c(C)c1 [Compound 11-863] | 100 | 100 | 100 | 100 | 90 | 90 | 90 | 90 | 50 | 50 | 60 | 70 | 70 | 60 | 50 | 70 |
| Cc1cc(C)c(S(=O)(=O)n2ncn(C(=O)N(c3ccc(F)cc3Cl)C(C)C)c2=O)c(C)c1 [Compound 11-870] | 90 | 80 | 80 | 90 | 90 | 80 | 80 | 90 | 90 | 80 | 80 | 90 | 80 | 90 | 90 | 80 |
| Cc1cc(C)c(S(=O)(=O)n2ncn(C(=O)N(c3ccc(F)cc3C)C(C)C)c2=O)c(C)c1 [Compound 11-876] | 100 | 100 | 100 | 100 | 100 | 100 | 100 | 100 | 70 | 100 | 100 | 100 | 30 | 100 | 30 | 90 |
| CC(C)N(C(=O)n1cnn(S(=O)(=O)c2cccs2)c1=O)c1ccc(F)cc1F [Compound 11-1022] | 100 | 100 | 90 | 100 | 90 | 90 | 90 | 90 | 70 | 100 | 100 | 100 | 40 | 70 | 0 | 90 |
| CC(C)N(C(=O)n1cnn(S(=O)(=O)c2cccs2)c1=O)c1ccc(F)cc1Cl [Compound 11-1029] | 90 | 80 | 80 | 90 | 90 | 80 | 80 | 90 | 90 | 80 | 80 | 90 | 80 | 90 | 90 | 80 |
